Measurements published in ChEMBL document CHEMBL4312013 (Eur J Med Chem, 2020).
Values after ≈ are worked out from the molar mass of the structure shown. Active and inactive are the calls of the source. The calls are words filed in the database; no cut-off is given here.

Legend:
Pseudomonas aeruginosa [1] = assay: microbe, parasite or virus in culture; assay type: functional; details: ATCC 15442, 18 h
Staphylococcus aureus [2] = assay: microbe, parasite or virus in culture; assay type: functional; details: NCTC 4163, 18 h
Enterococcus hirae = assay: microbe, parasite or virus in culture; assay type: functional; details: ATCC 10541, 18 h
Pseudomonas aeruginosa [3] = assay: microbe, parasite or virus in culture; assay type: functional; details: ATCC 27853, 18 h
Staphylococcus aureus [4] = assay: microbe, parasite or virus in culture; assay type: functional; details: ATCC 29213, 18 h
Escherichia coli [5] = assay: microbe, parasite or virus in culture; assay type: functional; details: ATCC 25922, 18 h
Staphylococcus aureus [6] = assay: microbe, parasite or virus in culture; assay type: functional; details: ATCC 6538, 18 h
Escherichia coli [7] = assay: microbe, parasite or virus in culture; assay type: functional; details: NCTC 8196, 18 h
[8] = system: Staphylococcus epidermidis; assay: microbe, parasite or virus in culture; assay type: functional; details: ATCC 12228, 18 h
SW480 [9] = assay: Reduction of IL-6 level in human SW480 cells at antiproliferative IC50 incubated for 72 hrs by ELISA relative to control; assay type: functional
SW480 [10] = assay: Cytotoxicity against human SW480 cells at 20 uM incubated for 72 hrs by LDH release assay (reference value: […]); assay type: functional
SW-620 [11] = assay: Induction of apoptosis in human SW620 cells at antiproliferative IC50 incubated for 72 hrs by annexin V FITC and PI staining based flow cytometry; assay type: functional
SW-620 [12] = assay: Cytotoxicity against human SW620 cells at 10 uM incubated for 72 hrs by LDH release assay (reference value: 4.2 %); assay type: functional
SW480 [13] = assay: Cytotoxicity against human SW480 cells at 40 uM incubated for 72 hrs by LDH release assay (reference value: […]); assay type: functional
SW480 [14] = assay: Cytotoxicity against human SW480 cells at 60 uM incubated for 72 hrs by LDH release assay (reference value: […]); assay type: functional
PC-3 [15] = assay: Cytotoxicity against human PC3 cells at 40 uM incubated for 72 hrs by LDH release assay (reference value: […]); assay type: functional
PC-3 [16] = assay: Induction of apoptosis in human PC3 cells assessed as viable cells at antiproliferative IC50 incubated for 72 hrs by annexin V FITC and PI staining based flow cytometry (reference value: 95.1 %); assay type: functional
SW-620 [17] = assay: Cytotoxicity against human SW620 cells at 20 uM incubated for 72 hrs by LDH release assay (reference value: 4.2 %); assay type: functional
PC-3 [18] = assay: Induction of apoptosis in human PC3 cells assessed as late apoptotic cells at antiproliferative IC50 incubated for 72 hrs by annexin V FITC and PI staining based flow cytometry (reference value: […]); assay type: functional
PC-3 [19] = assay: Cytotoxicity against human PC3 cells at 10 uM incubated for 72 hrs by LDH release assay (reference value: […]); assay type: functional
PC-3 [20] = assay: Induction of apoptosis in human PC3 cells assessed as necrotic cells at antiproliferative IC50 incubated for 72 hrs by annexin V FITC and PI staining based flow cytometry (reference value: […]); assay type: functional
SW-620 [21] = assay: Cytotoxicity against human SW620 cells at 40 uM incubated for 72 hrs by LDH release assay (reference value: 4.2 %); assay type: functional
SW480 [22] = assay: Cytotoxicity against human SW480 cells at 10 uM incubated for 72 hrs by LDH release assay (reference value: […]); assay type: functional
SW-620 [23] = assay: Reduction of IL-6 level in human SW620 cells at antiproliferative IC50 incubated for 72 hrs by ELISA relative to control; assay type: functional
PC-3 [24] = assay: Induction of apoptosis in human PC3 cells assessed as early apoptotic cells at antiproliferative IC50 incubated for 72 hrs by annexin V FITC and PI staining based flow cytometry (reference value: […]); assay type: functional
HaCaT [25] = assay: Reduction of IL-6 level in human HaCaT cells at antiproliferative IC50 incubated for 72 hrs by ELISA relative to control; assay type: cell-based
HaCaT [26] = assay: Induction of apoptosis in human HaCaT cells at antiproliferative IC50 incubated for 72 hrs by annexin V FITC and PI staining based flow cytometry; assay type: cell-based
PC-3 [27] = assay: Cytotoxicity against human PC3 cells at 20 uM incubated for 72 hrs by LDH release assay (reference value: […]); assay type: functional
SW-620 [28] = assay: Cytotoxicity against human SW620 cells at 60 uM incubated for 72 hrs by LDH release assay (reference value: 4.2 %); assay type: functional
PC-3 [29] = assay: Cytotoxicity against human PC3 cells at 60 uM incubated for 72 hrs by LDH release assay (reference value: […]); assay type: functional
PC-3 [30] = assay: Antitumor activity against human PC3 cells assessed as reduction in IL-6 level at antiproliferative IC50 incubated for 72 hrs by ELISA relative to control; assay type: functional
HaCaT [31] = assay: Cytotoxicity against human HaCaT cells assessed as reduction in cell viability incubated for 72 hrs by MTT assay; assay type: cell-based
SW480 [32] = assay: Antiproliferative activity against human SW480 cells assessed as reduction in cell viability incubated for 72 hrs by MTT assay; assay type: functional, cell-based; details: SW480, 72 h

CC(C)=CCC/C(C)=C/C(=O)O
MIC (Pseudomonas aeruginosa [1]): 512 µg/mL (≈ 3040 µM) | MIC (Staphylococcus aureus [2]): > 512 µg/mL | MIC (Enterococcus hirae): 512 µg/mL (≈ 3040 µM) | MIC (Pseudomonas aeruginosa [3]): 512 µg/mL (≈ 3040 µM) | MIC (Staphylococcus aureus [4]): > 512 µg/mL | MIC (Escherichia coli [5]): 512 µg/mL (≈ 3040 µM) | MIC (Staphylococcus aureus [6]): > 512 µg/mL | MIC (Escherichia coli [7]): > 512 µg/mL | MIC [8]: 512 µg/mL (≈ 3040 µM)

O=C(O)c1cn(C2CC2)c2cc(N3CCNCC3)c(F)cc2c1=O [CIPROFLOXACIN]
Activity (SW480 [9]): Active | MIC (Staphylococcus aureus [2]): 0.25 µg/mL (≈ 0.754 µM) | Activity (SW480 [10]): 14.2% | Activity (SW-620 [11]): 31.4 - 39.2% | Activity (SW-620 [12]): 8.1% | MIC (Enterococcus hirae): 8 µg/mL (≈ 24.1 µM) | Activity (SW480 [13]): 14.5% | MIC (Staphylococcus aureus [4]): 0.5 µg/mL (≈ 1.51 µM) | Activity (SW480 [14]): 15% | Activity (PC-3 [15]): 17.5% | Activity (PC-3 [16]): 59.7% | Activity (SW-620 [17]): 8.9% | MIC (Staphylococcus aureus [6]): 0.5 µg/mL (≈ 1.51 µM) | Activity (PC-3 [18]): 31.1% | Activity (PC-3 [19]): 14% | Activity (PC-3 [20]): 3.9% | Activity (SW-620 [21]): 9.1% | Activity (SW480 [22]): 12% | Activity (SW-620 [23]): Active | Activity (PC-3 [24]): 5.3% | Activity (HaCaT [25]): Active | Activity (HaCaT [26]): 6.2 to 12% | MIC [8]: 0.25 µg/mL (≈ 0.754 µM) | Activity (PC-3 [27]): 16.5% | Activity (SW-620 [28]): 9.3% | Activity (PC-3 [29]): 18%

C/C=C/C(=O)O [CROTONIC ACID]
MIC (Pseudomonas aeruginosa [1]): > 512 µg/mL | MIC (Staphylococcus aureus [2]): > 512 µg/mL | MIC (Enterococcus hirae): > 512 µg/mL | MIC (Pseudomonas aeruginosa [3]): > 512 µg/mL | MIC (Staphylococcus aureus [4]): > 512 µg/mL | MIC (Escherichia coli [5]): > 512 µg/mL | MIC (Staphylococcus aureus [6]): > 512 µg/mL | MIC (Escherichia coli [7]): > 512 µg/mL | MIC [8]: > 512 µg/mL

COc1cccc2c1C(=O)c1c(O)c3c(c(O)c1C2=O)C[C@@](O)(C(=O)CO)C[C@@H]3O[C@H]1C[C@H](N)[C@H](O)[C@H](C)O1 [DOXORUBICIN]
Activity (SW480 [9]): Active | Activity (PC-3 [30]): Active | Activity (SW-620 [23]): Active | Activity (HaCaT [25]): Active | IC50 (HaCaT [31]): 0.29 µM | IC50 (SW480 [32]): 0.75 µM

CCCCCCCC/C=C/CCCCCCCC(=O)O [ELAIDIC ACID]
MIC (Pseudomonas aeruginosa [1]): 512 µg/mL (≈ 1810 µM) | MIC (Staphylococcus aureus [2]): 512 µg/mL (≈ 1810 µM) | MIC (Enterococcus hirae): 512 µg/mL (≈ 1810 µM) | MIC (Pseudomonas aeruginosa [3]): 512 µg/mL (≈ 1810 µM) | MIC (Staphylococcus aureus [4]): 512 µg/mL (≈ 1810 µM) | MIC (Escherichia coli [5]): 512 µg/mL (≈ 1810 µM) | MIC (Staphylococcus aureus [6]): 512 µg/mL (≈ 1810 µM) | MIC (Escherichia coli [7]): 512 µg/mL (≈ 1810 µM) | MIC [8]: 512 µg/mL (≈ 1810 µM)

CCCCCCCC/C=C\CCCCCCCCCCCC(=O)O [ERUCIC ACID]
MIC (Pseudomonas aeruginosa [1]): 512 µg/mL (≈ 1510 µM) | MIC (Staphylococcus aureus [2]): > 512 µg/mL | MIC (Enterococcus hirae): 64 µg/mL (≈ 189 µM) | MIC (Pseudomonas aeruginosa [3]): 512 µg/mL (≈ 1510 µM) | MIC (Staphylococcus aureus [4]): > 512 µg/mL | MIC (Escherichia coli [5]): > 512 µg/mL | MIC (Staphylococcus aureus [6]): 128 µg/mL (≈ 378 µM) | MIC (Escherichia coli [7]): 512 µg/mL (≈ 1510 µM) | MIC [8]: 256 µg/mL (≈ 756 µM)

CC/C=C\C/C=C\C/C=C\CCCCCCCC(=O)O [LINOLENIC ACID]
MIC (Pseudomonas aeruginosa [1]): 512 µg/mL (≈ 1840 µM) | MIC (Staphylococcus aureus [2]): 128 µg/mL (≈ 460 µM) | MIC (Enterococcus hirae): 512 µg/mL (≈ 1840 µM) | MIC (Pseudomonas aeruginosa [3]): 512 µg/mL (≈ 1840 µM) | MIC (Staphylococcus aureus [4]): 128 µg/mL (≈ 460 µM) | MIC (Escherichia coli [5]): > 512 µg/mL | MIC (Staphylococcus aureus [6]): 128 µg/mL (≈ 460 µM) | MIC (Escherichia coli [7]): > 512 µg/mL | MIC [8]: 512 µg/mL (≈ 1840 µM)

CCCCCCCC/C=C\CCCCCCCC(=O)O [OLEIC ACID]
MIC (Pseudomonas aeruginosa [1]): 512 µg/mL (≈ 1810 µM) | MIC (Staphylococcus aureus [2]): 256 to 512 µg/mL (≈ 906 to 1810 µM) | MIC (Enterococcus hirae): 128 to 256 µg/mL (≈ 453 to 906 µM) | MIC (Pseudomonas aeruginosa [3]): 256 to 512 µg/mL (≈ 906 to 1810 µM) | MIC (Staphylococcus aureus [4]): 256 to 512 µg/mL (≈ 906 to 1810 µM) | MIC (Escherichia coli [5]): 512 µg/mL (≈ 1810 µM) | MIC (Staphylococcus aureus [6]): 256 µg/mL (≈ 906 µM) | MIC (Escherichia coli [7]): 512 µg/mL (≈ 1810 µM) | MIC [8]: 512 µg/mL (≈ 1810 µM)

CCCCCCCCCCCCCCCC(=O)O [PALMITIC ACID]
MIC (Pseudomonas aeruginosa [1]): 512 µg/mL (≈ 2000 µM) | MIC (Staphylococcus aureus [2]): 512 µg/mL (≈ 2000 µM) | MIC (Enterococcus hirae): 512 µg/mL (≈ 2000 µM) | MIC (Pseudomonas aeruginosa [3]): 512 µg/mL (≈ 2000 µM) | MIC (Staphylococcus aureus [4]): 512 µg/mL (≈ 2000 µM) | MIC (Escherichia coli [5]): 512 µg/mL (≈ 2000 µM) | MIC (Staphylococcus aureus [6]): 512 µg/mL (≈ 2000 µM) | MIC (Escherichia coli [7]): 512 µg/mL (≈ 2000 µM) | MIC [8]: 512 µg/mL (≈ 2000 µM)

C/C=C/C=C/C(=O)O [SORBIC ACID]
MIC (Pseudomonas aeruginosa [1]): 512 µg/mL (≈ 4570 µM) | MIC (Staphylococcus aureus [2]): > 512 µg/mL | MIC (Enterococcus hirae): 512 µg/mL (≈ 4570 µM) | MIC (Pseudomonas aeruginosa [3]): 512 µg/mL (≈ 4570 µM) | MIC (Staphylococcus aureus [4]): > 512 µg/mL | MIC (Escherichia coli [5]): 512 µg/mL (≈ 4570 µM) | MIC (Staphylococcus aureus [6]): > 512 µg/mL | MIC (Escherichia coli [7]): > 512 µg/mL | MIC [8]: > 512 µg/mL
